Measured values from patent publication US10189841B2, “Purinones as ubiquitin-specific protease 1 inhibitors” (Forma Therapeutics, Inc., priority 2015, dated 2019).

These molecules were tested against USP1 (construct USP1 (I-785, GG670, 671AA)/UAF1 (I-677)-Flag) (Homo sapiens (Human), UniProt O94782, G670A/G671A) (assay: Ubiquitin-Rhodamine 110 assay for USP1 activity). Conditions: USP1/UAF1 25 pM, Ub-Rh110 25 nM, 30 min preincubation.
Assay type: biochemical
Procedure, shortened: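 Two formats with the USP1/UAF1 complex and 25 nM ubiquitin-rhodamine 110 in pH 8.0 Tris buffer with calcium, glutathione and detergent. Single-point screening used 10 µM, 100 pM enzyme and 45 min. Inhibition was set against no-enzyme and DMSO wells.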

Chain of USP1 (construct USP1 (I-785, GG670, 671AA)/UAF1 (I-677)-Flag) (O94782 whole entry G670A/G671A): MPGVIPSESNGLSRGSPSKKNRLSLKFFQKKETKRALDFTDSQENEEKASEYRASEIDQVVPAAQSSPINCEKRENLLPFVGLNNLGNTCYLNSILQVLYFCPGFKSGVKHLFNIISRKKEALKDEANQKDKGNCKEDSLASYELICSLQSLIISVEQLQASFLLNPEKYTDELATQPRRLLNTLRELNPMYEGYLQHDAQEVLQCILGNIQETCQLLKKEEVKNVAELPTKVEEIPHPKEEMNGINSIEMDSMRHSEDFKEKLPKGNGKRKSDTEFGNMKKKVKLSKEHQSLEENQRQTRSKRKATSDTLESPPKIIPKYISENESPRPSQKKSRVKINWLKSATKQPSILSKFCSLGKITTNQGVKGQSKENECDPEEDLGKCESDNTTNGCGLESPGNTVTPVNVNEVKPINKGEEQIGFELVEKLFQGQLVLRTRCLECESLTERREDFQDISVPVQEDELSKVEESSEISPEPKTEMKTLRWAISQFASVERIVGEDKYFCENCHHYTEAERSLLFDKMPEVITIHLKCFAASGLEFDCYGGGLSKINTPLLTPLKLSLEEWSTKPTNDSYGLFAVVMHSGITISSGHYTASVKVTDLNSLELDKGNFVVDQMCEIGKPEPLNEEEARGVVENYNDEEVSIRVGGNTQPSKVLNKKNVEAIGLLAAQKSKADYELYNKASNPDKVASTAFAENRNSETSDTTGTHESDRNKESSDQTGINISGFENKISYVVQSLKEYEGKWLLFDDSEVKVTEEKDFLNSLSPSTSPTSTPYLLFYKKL
Chain of USP1 (construct USP1 (I-785, GG670, 671AA)/UAF1 (I-677)-Flag) (Q8TAF3 whole entry partner): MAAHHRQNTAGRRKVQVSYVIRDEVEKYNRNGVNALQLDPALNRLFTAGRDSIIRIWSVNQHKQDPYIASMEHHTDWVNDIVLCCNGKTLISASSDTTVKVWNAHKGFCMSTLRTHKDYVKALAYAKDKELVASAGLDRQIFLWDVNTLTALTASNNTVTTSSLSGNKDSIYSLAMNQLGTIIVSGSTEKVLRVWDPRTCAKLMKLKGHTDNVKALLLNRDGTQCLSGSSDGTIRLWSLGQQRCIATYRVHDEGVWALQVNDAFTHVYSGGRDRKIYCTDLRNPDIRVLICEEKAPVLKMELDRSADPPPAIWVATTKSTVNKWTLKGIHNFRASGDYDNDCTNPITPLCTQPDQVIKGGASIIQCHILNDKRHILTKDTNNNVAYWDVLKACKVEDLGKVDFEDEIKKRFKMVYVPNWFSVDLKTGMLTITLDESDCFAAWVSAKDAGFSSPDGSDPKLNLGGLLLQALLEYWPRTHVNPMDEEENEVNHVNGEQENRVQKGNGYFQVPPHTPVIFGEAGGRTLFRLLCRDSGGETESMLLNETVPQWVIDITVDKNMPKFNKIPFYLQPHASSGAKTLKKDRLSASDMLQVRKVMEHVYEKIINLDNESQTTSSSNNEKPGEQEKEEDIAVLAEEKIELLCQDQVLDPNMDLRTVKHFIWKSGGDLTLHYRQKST

`CC(C)c1ccccc1-c1ncc2[nH]c(=O)n(CC3CCN(c4cccnc4)CC3)c2n1` [Compound I-143, 2-(2-isopropylphenyl)-9-((1-(pyridin-3-yl)piperidin-4-yl)methyl)-7,9-dihydro-8H-purin-8-one] and `CC(C)c1ccccc1-c1ncc2[nH]c(=O)n(CCC3CCN(c4cccnc4)CC3)c2n1` [Compound I-161, 2-(2-isopropylphenyl)-9-(2-(1-(pyridin-3-yl)piperidin-4-yl)ethyl)-7,9-dihydro-8H-purin-8-one] fall in the same range of IC50: 200 to 2000 nM for the first, 200 to 2000 nM for the second.

Compared with `CC(C)c1ccccc1-c1ncc2[nH]c(=O)n(C3CCN(c4cccnc4)CC3)c2n1` [Compound I-144, 2-(2-isopropylphenyl)-9-(1-(pyridin-3-yl)piperidin-4-yl)-7,9-dihydro-8H-purin-8-one], `CC(C)c1ccccc1-c1ncc2[nH]c(=O)n([C@@H]3CCOc4ccccc43)c2n1` [Compound I-159, (R)-9-(chroman-4-yl)-2-(2-isopropylphenyl)-7,9-dihydro-8H-purin-8-one] is lower in IC50: greater than 2000 nM for the first, 200 to 2000 nM for the second. The second is the more potent here.

Going from `CC(C)c1ccccc1-c1ncc2[nH]c(=O)n(Cc3ccc(-n4cccn4)cc3)c2n1` [Compound I-145, 9-(4-(1H-pyrazol-1-yl)benzyl)-2-(2-isopropylphenyl)-7,9-dihydro-8H-purin-8-one] to `CC(C)c1ccccc1-c1ncc2[nH]c(=O)n(Cc3ccc(-n4cncn4)cc3)c2n1` [Compound I-154, 9-(4-(1H-1,2,4-triazol-1-yl)benzyl)-2-(2-isopropylphenyl)-7,9-dihydro-8H-purin-8-one], the IC50 rises from less than 50 nM to greater than 2000 nM. The first is the more potent here.

Compared with `CC(C)c1ccccc1-c1ncc2[nH]c(=O)n(Cc3ccc(-n4cccn4)nc3)c2n1` [Compound I-146, 9-((6-(1H-pyrazol-1-yl)pyridin-3-yl)methyl)-2-(2-isopropylphenyl)-7,9-dihydro-8H-purin-8-one], `CC(C)c1ccccc1-c1ncc2[nH]c(=O)n(Cc3ccc(-n4cccn4)c(F)c3)c2n1` [Compound I-177, 9-(3-fluoro-4-(1H-pyrazol-1-yl)benzyl)-2-(2-isopropylphenyl)-7,9-dihydro-8H-purin-8-one] is lower in IC50: 50 to 200 nM for the first, less than 50 nM for the second.

First: CC(C)c1ccccc1-c1ncc2[nH]c(=O)n([C@@H](C)c3ccc(-n4ccnn4)cc3)c2n1 [Compound I-147, (S)-9-(1-(4-(1H-1,2,3-triazol-1-yl)phenyl)ethyl)-2-(2-isopropylphenyl)-7,9-dihydro-8H-purin-8-one]
Second: CC(C)c1ccccc1-c1ncc2[nH]c(=O)n([C@H](C)c3ccc(-n4ccnn4)cc3)c2n1 [Compound I-148, (R)-9-(1-(4-(1H-1,2,3-triazol-1-yl)phenyl)ethyl)-2-(2-isopropylphenyl)-7,9-dihydro-8H-purin-8-one]
The IC50 of the first is lower: 50 to 200 nM for the first, 200 to 2000 nM for the second. The first is the more potent here.

First: CC(C)c1ccccc1-c1ncc2[nH]c(=O)n(Cc3ccc(-n4ccc(C(F)(F)F)n4)cc3)c2n1 [Compound I-149, 2-(2-isopropylphenyl)-9-(4-(3-(trifluoromethyl)-1H-pyrazol-1-yl)benzyl)-7,9-dihydro-8H-purin-8-one]
Second: Cc1cn(-c2ccc(Cn3c(=O)[nH]c4cnc(-c5ccccc5C(C)C)nc43)cc2)nn1 [Compound I-175, 2-(2-isopropylphenyl)-9-(4-(4-methyl-1H-1,2,3-triazol-1-yl)benzyl)-7,9-dihydro-8H-purin-8-one]
The IC50 of the first is higher: 50 to 200 nM for the first, less than 50 nM for the second. The second is the more potent here.

`Cc1nnc(-c2ccc(Cn3c(=O)[nH]c4cnc(-c5ccccc5C(C)C)nc43)cc2)o1` [Compound I-150, 2-(2-isopropylphenyl)-9-(4-(5-methyl-1,3,4-oxadiazol-2-yl)benzyl)-7,9-dihydro-8H-purin-8-one] and `Cc1nc(-c2ccc(Cn3c(=O)[nH]c4cnc(-c5ccccc5C(C)C)nc43)cc2)no1` [Compound I-152, 2-(2-isopropylphenyl)-9-(4-(5-methyl-1,2,4-oxadiazol-3-yl)benzyl)-7,9-dihydro-8H-purin-8-one] cannot be ordered by IC50: less than 50 nM for the first, less than 50 nM for the second.

Compared with `CC(C)c1ccccc1-c1ncc2[nH]c(=O)n(Cc3ccc(C#N)cc3)c2n1` [Compound I-151, 4-((2-(2-isopropylphenyl)-8-oxo-7,8-dihydro-9H-purin-9-yl)methyl)benzonitrile], `CC(C)c1ccccc1-c1ncc2[nH]c(=O)n(Cc3ccccc3)c2n1` [Compound I-171, 9-benzyl-2-(2-isopropylphenyl)-7,9-dihydro-8H-purin-8-one] is lower in IC50: 200 to 2000 nM for the first, 50 to 200 nM for the second.

Compared with `CC(C)c1ccccc1-c1ncc2[nH]c(=O)n(Cc3ccc(CN4CCOCC4)cc3)c2n1` [Compound I-153, 2-(2-isopropylphenyl)-9-(4-(morpholinomethyl)benzyl)-7,9-dihydro-8H-purin-8-one], `CC(C)c1ccccc1-c1ncc2[nH]c(=O)n(Cc3ccc(-n4ccc(N5CCOCC5)n4)cc3)c2n1` [Compound I-174, 2-(2-isopropylphenyl)-9-(4-(3-morpholino-1H-pyrazol-1-yl)benzyl)-7,9-dihydro-8H-purin-8-one] is lower in IC50: greater than 2000 nM for the first, less than 50 nM for the second. The second is the more potent here.

First: CC(C)c1ccccc1-c1ncc2[nH]c(=O)n([C@H](C)c3ccccc3)c2n1 [Compound I-155, (R)-2-(2-isopropylphenyl)-9-(1-phenylethyl)-7,9-dihydro-8H-purin-8-one]
Second: CC(C)c1ccccc1-c1ncc2[nH]c(=O)n([C@@H](C)c3ccccc3)c2n1 [Compound I-156, (S)-2-(2-isopropylphenyl)-9-(1-phenylethyl)-7,9-dihydro-8H-purin-8-one]
The IC50 of the first is lower: 50 to 200 nM for the first, greater than 2000 nM for the second.

First: CC(C)c1ccccc1-c1ncc2[nH]c(=O)n([C@@H](C)c3ccc(-n4cccn4)cc3)c2n1 [Compound I-157, (S)-9-(1-(4-(1H-pyrazol-1-yl)phenyl)ethyl)-2-(2-isopropylphenyl)-7,9-dihydro-8H-purin-8-one]
Second: CC(C)c1ccccc1-c1ncc2[nH]c(=O)n([C@H](C)c3ccc(F)cc3)c2n1 [Compound I-178, (R)-9-(1-(4-fluorophenyl)ethyl)-2-(2-isopropylphenyl)-7,9-dihydro-8H-purin-8-one]
The IC50 of the first is higher: 50 to 200 nM for the first, less than 50 nM for the second.

`CC(C)c1ccccc1-c1ncc2[nH]c(=O)n(Cc3ccc(-c4nccn4C)cc3)c2n1` [Compound I-160, 2-(2-isopropylphenyl)-9-(4-(1-methyl-1H-imidazol-2-yl)benzyl)-7,9-dihydro-8H-purin-8-one] and `CC(C)c1c(F)cccc1-c1ncc2[nH]c(=O)n(Cc3ccc(-c4nccn4C)cc3)c2n1` [Compound I-172, 2-(3-fluoro-2-isopropylphenyl)-9-(4-(1-methyl-1H-imidazol-2-yl)benzyl)-7,9-dihydro-8H-purin-8-one] cannot be ordered by IC50: less than 50 nM for the first, less than 50 nM for the second.

First: CC(C)c1ccccc1-c1ncc2[nH]c(=O)n(Cc3ccc(-n4cccn4)cc3Cl)c2n1 [Compound I-162, 9-(2-chloro-4-(1H-pyrazol-1-yl)benzyl)-2-(2-isopropylphenyl)-7,9-dihydro-8H-purin-8-one]
Second: CC(C)c1ccccc1-c1ncc2[nH]c(=O)n(Cc3ccc(-n4cccn4)cc3F)c2n1 [Compound I-167, 9-(2-fluoro-4-(1H-pyrazol-1-yl)benzyl)-2-(2-isopropylphenyl)-7,9-dihydro-8H-purin-8-one]
The IC50 of the first is lower: 50 to 200 nM for the first, 200 to 2000 nM for the second. The first is the more potent here.

First: CC(C)c1ccccc1-c1ncc2[nH]c(=O)n([C@@H]3CC[C@H]3c3ccc(-n4cccn4)cc3)c2n1 [Compound I-163, 9-((1R,2S)-2-(4-(1H-pyrazol-1-yl)phenyl)cyclobutyl)-2-(2-isopropylphenyl)-7,9-dihydro-8H-purin-8-one]
Second: CC(C)c1ccccc1-c1ncc2[nH]c(=O)n([C@H]3CC[C@@H]3c3ccc(-n4cccn4)cc3)c2n1 [Compound I-164, 9-((1S,2R)-2-(4-(1H-pyrazol-1-yl)phenyl)cyclobutyl)-2-(2-isopropylphenyl)-7,9-dihydro-8H-purin-8-one]
The IC50 of the first is lower: less than 50 nM for the first, 200 to 2000 nM for the second.

Compared with `CC(C)c1c(F)cccc1-c1ncc2[nH]c(=O)n(Cc3ccc(-n4ccnn4)cc3)c2n1` [Compound I-165, 9-(4-(1H-1,2,3-triazol-1-yl)benzyl)-2-(3-fluoro-2-isopropylphenyl)-7,9-dihydro-8H-purin-8-one], `CC(C)c1c(F)cccc1-c1ncc2[nH]c(=O)n(Cc3ccc(-n4cccn4)cc3)c2n1` [Compound I-170, 9-(4-(1H-pyrazol-1-yl)benzyl)-2-(3-fluoro-2-isopropylphenyl)-7,9-dihydro-8H-purin-8-one] is lower in IC50: 50 to 200 nM for the first, less than 50 nM for the second. The second is the more potent here.

`CC(C)c1c(F)cccc1-c1ncc2[nH]c(=O)n(Cc3ccc(-n4nccn4)cc3)c2n1` [Compound I-166, 9-(4-(2H-1,2,3-triazol-2-yl)benzyl)-2-(3-fluoro-2-isopropylphenyl)-7,9-dihydro-8H-purin-8-one] and `Cc1nnn(-c2ccc(Cn3c(=O)[nH]c4cnc(-c5ccccc5C(C)C)nc43)cc2)n1` [Compound I-168, 2-(2-isopropylphenyl)-9-(4-(5-methyl-2H-tetrazol-2-yl)benzyl)-7,9-dihydro-8H-purin-8-one] fall in the same range of IC50: 50 to 200 nM for the first, 50 to 200 nM for the second.

`CC(C)c1ccccc1-c1ncc2[nH]c(=O)n(Cc3ccc(-c4ncco4)cc3)c2n1` [Compound I-169, 2-(2-isopropylphenyl)-9-(4-(oxazol-2-yl)benzyl)-7,9-dihydro-8H-purin-8-one] and `CC(C)c1ccccc1-c1ncc2[nH]c(=O)n(Cc3ccc(-c4ncc(F)n4C)cc3)c2n1` [Compound I-176, 9-(4-(5-fluoro-1-methyl-1H-imidazol-2-yl)benzyl)-2-(2-isopropylphenyl)-7,9-dihydro-8H-purin-8-one] cannot be ordered by IC50: less than 50 nM for the first, less than 50 nM for the second.

Compared with `CC(C)c1ccccc1-c1ncc2[nH]c(=O)n(Cc3ccc(-n4ccc(N5CCN(C)CC5)n4)cc3)c2n1` [Compound I-173, 2-(2-isopropylphenyl)-9-(4-(3-(4-methylpiperazin-1-yl)-1H-pyrazol-1-yl)benzyl)-7,9-dihydro-8H-purin-8-one], `CC(C)c1ccccc1-c1ncc2[nH]c(=O)n([C@@H](C)c3ccc(F)cc3)c2n1` [Compound I-179, (S)-9-(1-(4-fluorophenyl)ethyl)-2-(2-isopropylphenyl)-7,9-dihydro-8H-purin-8-one] is higher in IC50: less than 50 nM for the first, 50 to 200 nM for the second. The first is the more potent here.
